The source of these data is BindingDB's records for doi:10.1021/acs.jmedchem.1c00049 (Genentech, 2021).

Each structure is given as a SMILES string. pIC50: −log10 of the molar value.

Assay [1] is described as follows: Inhibition of human Nav1.7 expressed in HEK293 cells incubated for 1 hr in presence of veratridine by sodium influx assay.
Assay [2] in a line: Displacement of [3H]GX-545 Nav1.7 (unknown origin) expressed in HEK cells by liquid scintillation counting based radioligand competition assay. (In general: In a radioligand displacement assay an active substance lowers the binding of a labelled ligand.)

On to `O=C(NS(=O)(=O)C1COC1)c1cc(C2CC2)c(OCC23CC4CC(CC(C4)C2)C3)cc1F`, for which the values for the pIC50 in assay [1] and in assay [2] were 7.42 and 8.40, respectively.
For `CS(=O)(=O)NC(=O)c1cc(C2CC2)c(OCC2CCN(C(c3ccccc3)c3ccccc3)CC2)cc1F`, the pIC50 (usually −log10 of the IC50, conventionally taken in molar units) in assay [1] was 7.18; in assay [2] it was 8.44.
As for `CS(=O)(=O)NC(=O)c1cc(C2CC2)c(OCC2CCN(Cc3ccccc3)CC2)cc1F`, the figures for the pIC50 in assay [1] and in assay [2] were 5.49 and 6.85, respectively.
`O=C(NS(=O)(=O)C1CC1)c1cc(C2CC2)c(OCC23CC4CC(CC(C4)C2)C3)cc1F` [US8952169, 148]: the negative-log IC50 (pIC50) in assay [1] was 7.85; in assay [2], 8.96.
In the same order, the values of `O=C(NS(=O)(=O)N1CCCC1)c1cc(C2CC2)c(OCC23CC4CC(CC(C4)C2)C3)cc1F` [US8952169, 154] are 6.80 and 8.66.
In assay [2], `O=C(NS(=O)(=O)N1CCOCC1)c1cc(C2CC2)c(OCC23CC4CC(CC(C4)C2)C3)cc1F` [US8952169, 155] showed a pIC50 of 8.64.
For the molecule `CS(=O)(=O)NC(=O)c1cc(C2CC2)c(OCC2CN(C(c3ccccc3)c3ccccc3)C2)cc1F` [US8952169, 440], the pIC50 was 7.64 in assay [1] and 8.26 in assay [2].
In the same order, the values of `CS(=O)(=O)NC(=O)c1cc(C2CC2)c(OCC2CCN(Cc3ccc(Cl)cc3)CC2)cc1F` [US9546164, 104] are 7.38 and 7.66.
For `CS(=O)(=O)NC(=O)c1cc(C2CC2)c(OCC2CCN(Cc3ccc(OC(F)(F)F)cc3)CC2)cc1F` [US9546164, 135], the pIC50 is 7.51 in assay [1] and 8.11 in assay [2].
For `CS(=O)(=O)NC(=O)c1cc(C2CC2)c(OCC2CCN(Cc3cc(Cl)cc(Cl)c3)CC2)cc1F` [US9546164, 139] the same measures were 6.92 and 8.62.
In the same order, the values of `CC(C)(c1cc(Cl)cc(Cl)c1)N1CCC(COc2cc(F)c(C(=O)NS(C)(=O)=O)cc2C2CC2)CC1` [US9546164, 209] are 7.59 and 9.10.
For `CS(=O)(=O)NC(=O)c1cc(C2CC2)c(OCC2CCN(C(=O)c3cc(Cl)cc(Cl)c3)CC2)cc1F` [US9546164, 253] the same measures were 7.47 and 8.01.
